Measured values as given in patent US7834013B2, “Aminophenylcyclopropyl carboxylic acids and derivatives as agonists to GPR40” (GlaxoSmithKline LLC, priority 2003, dated 2010).
Where a name gives a salt, the structure may show the parent alone.

Target: T1, GPR40 (Homo sapiens, UniProt O14842)
T1 construct: expressed in transfected cells
Experiment: GPR40 SAR Primary Assay (Elk-1/Gal4-luc+ reporter, luciferase activity)
Type: cell-based
Conditions: stable GPR40 Elk-1/Gal4-luc+ CHO cell line, 5 hours incubation
Experimental: An existing stable GPR40 Elk-1/Gal4-luc^+ CHO cell line generated by electroporation and functional cloning was used. Cells were maintained in a humidified incubator at 37° C./5% CO2 in complete media containing DMEM/F12 (Gibco, #11039-021), 5% FBS (Gibco, #16140-071) and 1% Glutamine (Gibco, #25030-081). Cell maintenance passages were made at 1:40 dilution every 3-4 days. Forty eight hours prior to assay, 15e6 cells were added to 200 ml of complete media then seeded into a 1200 cm^2-cell factory and returned to a humidified incubator at 37° C./5% CO2. 20 hours prior to assay, the growth media was removed and replaced with 200 ml of serum-free DMEM/F12 to quiesce background activity. At the time of assay, cells were harvested using non-enzymatic cell dissociation solution (Sigma, #C-5914), washed and counted. The 20 hour starve media was collected and used as condition media for cell assay plating. Cells were plated at a concentration of 10,000 cells/well in a total well volume of […] in black 96-well clear bottom polystyrene plates (CoStar, #3904). Test compounds were prepared as serial dilutions in 100% DMSO, then 1 ul was delivered to each well resulting in a final concentration of 1% DMSO. The plates were then returned to a humidified incubator at 37° C./5% CO2 for 5 hours. Following the incubation, the medium was replaced with 50 ul of a 1:1 mixture of SteadyGlo™ (Promega, #E2550) and dPBS containing 1 mM CaCl2 and 1 mM MgCl2. Plates were then sealed and subjected to dark adaptation at room temperature for 10 minutes. Luciferase activity was measured on a Packard TopCount™ microplate scintillation counter using 2 seconds per well count time.
Data analysis was performed using standard methods.
The Normalization Equation used was 100*(Unknown compound response−Background response)/(Agonist Max response−Background response).
The Curve Fit Function used was y=((Vmax*x^n)/(K^n+x^n))+Y2.
A percent max response and pEC50 were recorded for each compound. Although specific pEC50 values are given, these values should be considered exemplary. Those skilled in the art will appreciate the variability in performing and recording the biological activity assays that are herein described. The compounds of the present invention provide a pEC50 of at least 5.0.

T1 sequence (O14842 whole entry): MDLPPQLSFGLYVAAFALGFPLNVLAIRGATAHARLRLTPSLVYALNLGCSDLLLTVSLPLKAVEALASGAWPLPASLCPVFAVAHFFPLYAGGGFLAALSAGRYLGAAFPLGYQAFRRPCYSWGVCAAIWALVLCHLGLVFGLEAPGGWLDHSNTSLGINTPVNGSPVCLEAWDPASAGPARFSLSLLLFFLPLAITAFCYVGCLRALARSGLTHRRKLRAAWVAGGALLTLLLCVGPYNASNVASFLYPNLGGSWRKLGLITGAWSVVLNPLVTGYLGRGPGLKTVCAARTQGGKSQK

EC50 [nM] | Compound
12.6 | O=C(O)C1CC1c1ccc(NCc2cccc(Oc3ccccc3)c2)cc1 (racemic) [Example 1, Racemic-(trans)-2-[4-({[3-(phenyloxy)phenyl]methyl}ammonium)phenyl]cyclopropanecarboxylic Acid Trifluoroacetate]
25.1 | O=C(O)[C@@H]1C[C@H]1c1ccc(NCc2ccc(-c3ccccc3)cc2)cc1 (racemic) [Example 2, Racemic-(trans)-2-{4-[(4-biphenylylmethyl)amino]phenyl}cyclopropanecarboxylic Acid]
1580 | O=C(O)[C@@H]1C[C@H]1c1ccc(NCc2ccc(-c3ccccn3)cc2)cc1 (racemic) [Example 3, Racemic-(trans)-2-[4-({[4-(2-pyridinyl)phenyl]methyl}amino)phenyl]cyclopropanecarboxylic Acid]
2 | O=C(O)C1CC1c1ccc(NCc2cccc(Oc3ccc(Cl)c(Cl)c3)c2)cc1 (racemic) [Example 4, Racemic-(trans)-2-{4-[({3-[(3,4-dichlorophenyl)oxy]phenyl}methyl)ammonium]phenyl}-cyclopropanecarboxylic Acid Trifluoroacetate]
20 | COc1ccc(Oc2cccc(CNc3ccc(C4CC4C(=O)O)cc3)c2)cc1 (racemic) [Example 5, Racemic-(trans)-2-(4-{[(3-{[4-(methyloxy)phenyl]oxy}phenyl)methyl]ammonium}phenyl)-cyclopropanecarboxylic Acid Trifluoroacetate]
15.8 | O=C(O)C1CC1c1ccc(NCc2cccc(Oc3ccc(Cl)cc3)c2)cc1 (racemic) [Example 6, Racemic-(trans)-2-{4-[({3-[(4-chlorophenyl)oxy]phenyl}methyl)ammonium]phenyl}-cyclopropanecarboxylic Acid Trifluoroacetate]
20 | CC(C)(C)c1ccc(Oc2cccc(CNc3ccc(C4CC4C(=O)O)cc3)c2)cc1 (racemic) [Example 7, Racemic-(trans)-2-(4-{[(3-{[4-(1,1-dimethylethyl)phenyl]oxy}phenyl)methyl]ammonium}phenyl)cyclopropanecarboxylic Acid Trifluoroacetate]
6.31 | O=C(O)C1CC1c1ccc(NCc2cccc(Oc3cc(Cl)cc(Cl)c3)c2)cc1 (racemic) [Example 8, Racemic-(trans)-2-{4-[({3-[(3,5-dichlorophenyl)oxy]phenyl}methyl)ammonium]phenyl}-cyclopropanecarboxylic Acid Trifluoroacetate]
7.94 | O=C(O)C1CC1c1ccc(NCc2cccc(Oc3cccc(C(F)(F)F)c3)c2)cc1 (racemic) [Example 9, Racemic-(trans)-2-(4-{[(3-{[3-(trifluoromethyl)phenyl]oxy}phenyl)methyl]ammonium}-phenyl)cyclopropanecarboxylic Acid Trifluoroacetate]
10 | Cc1ccc(Oc2cccc(CNc3ccc(C4CC4C(=O)O)cc3)c2)cc1 (racemic) [Example 10, Racemic-(trans)-2-{4-[({3-[(4-methylphenyl)oxy]phenyl}methyl)ammonium]phenyl}-cyclopropanecarboxylic Acid Trifluoroacetate]
126 | O=C(O)C1CC1c1ccc(NCc2cccc(OCc3ccccc3)c2)cc1 (racemic) [Example 11, Racemic-(trans)-2-{4-[({3-[(phenylmethyl)oxy]phenyl}methyl)ammonium]phenyl}-cyclopropanecarboxylic Acid Trifluoroacetate]
398 | Cc1nc(Oc2ccccc2)sc1CNc1ccc(C2CC2C(=O)O)cc1 (racemic) [Example 12, Racemic-(trans)-2-[4-({[4-methyl-2-(phenyloxy)-1,3-thiazol-5-yl]methyl}ammonium)-phenyl]cyclopropanecarboxylic Acid Trifluoroacetate]
20 | Cc1nc(-c2ccc(C(F)(F)F)cc2)sc1CNc1ccc([C@@H]2C[C@H]2C(=O)O)cc1 (racemic) [Example 13, Racemic-(trans)-2-{4-[({4-methyl-2-[4-(trifluoromethyl)phenyl]-1,3-thiazol-5-yl}methyl)amino]phenyl}cyclopropanecarboxylic Acid]
15.8 | CC(C)c1nc(-c2ccc(C(F)(F)F)cc2)sc1CNc1ccc([C@@H]2C[C@H]2C(=O)O)cc1 (racemic) [Example 14, Racemic-(trans)-2-{4-[({4-isopropyl-2-[4-(trifluoromethyl)phenyl]-1,3-thiazol-5-yl}methyl)amino]phenyl}cyclopropanecarboxylic Acid]
126 | O=C(O)[C@@H]1C[C@H]1c1ccc(NCc2ccc(-c3ccc(Cl)cc3)o2)cc1 (racemic) [Example 15, Racemic-(trans)-2-[4-({[5-(4-chlorophenyl)-2-furanyl]methyl}amino)phenyl]cyclopropanecarboxylic Acid]
63.1 | O=C(O)[C@@H]1C[C@H]1c1ccc(NCc2ccc(OCc3ccccc3)cc2)cc1 (racemic) [Example 16, Racemic-(trans)-2-{4-[({4-[(phenylmethyl)oxy]phenyl}methyl)amino]phenyl}cyclopropanecarboxylic Acid trifluoroacetate]
251 | Cc1nc(Oc2ccc(F)c(F)c2)sc1CNc1ccc([C@@H]2C[C@H]2C(=O)O)cc1 (racemic) [Example 17, Racemic-(trans)-2-{4-[({2-[(3,4-difluorophenyl)oxy]-4-methyl-1,3-thiazol-5-yl}methyl)amino]phenyl}cyclopropanecarboxylic Acid]
251 | O=C(O)[C@@H]1C[C@H]1c1ccc(NCc2ccc(-c3ccc(C(F)(F)F)cc3)o2)cc1 (racemic) [Example 18, Racemic-(trans)-2-{4-[({5-[4-(trifluoromethyl)phenyl]-2-furanyl}methyl)amino]phenyl}cyclopropanecarboxylic Acid Trifluoroacetate]
63.1 | O=C(O)[C@@H]1C[C@H]1c1ccc(NCc2ccc(-c3ccc(C(F)(F)F)cc3)s2)cc1 (racemic) [Example 19, Racemic-(trans)-2-{4-[({5-[4-(trifluoromethyl)phenyl]-2-thienyl}methyl)amino]phenyl}cyclopropanecarboxylic Acid Trifluoroacetate]
158 | O=C(O)[C@@H]1C[C@H]1c1ccc(NCc2cc(-c3ccc(C(F)(F)F)cc3)co2)cc1 (racemic) [Example 20, Racemic-(trans)-2-{4-[({4-[4-(trifluoromethyl)phenyl]-2-furanyl}methyl)amino]phenyl}cyclopropanecarboxylic Acid]
25.1 | O=C(O)[C@H]1C[C@@H]1c1ccc(NCc2cccc(Cc3ccccc3)c2)cc1 (racemic) [Example 21, Racemic-(trans)-2-[4-({[3-(phenylmethyl)phenyl]methyl}amino)phenyl]cyclopropanecarboxylic Acid Trifluoroacetate]
316 | O=C(O)[C@H]1C[C@@H]1c1ccc(NCc2cccc(Oc3ccc([N+](=O)[O-])cc3)c2)cc1 (racemic) [Example 22, Racemic-(trans)-2-{4-[({3-[(4-nitrophenyl)oxy]phenyl}methyl)amino]phenyl}cyclopropanecarboxylic Acid Trifluoroacetate]
31.6 | O=C(O)[C@H]1C[C@@H]1c1ccc(NCc2cccc(Sc3ccccc3)c2)cc1 (racemic) [Example 23, Racemic-(trans)-2-[4-({[3-(phenylthio)phenyl]methyl}amino)phenyl]cyclopropanecarboxylic Acid Trifluoroacetate]
200 | Nc1ccc(Oc2cccc(CNc3ccc([C@H]4C[C@@H]4C(=O)O)cc3)c2)cc1 (racemic) [Example 24, Racemic-(trans)-2-{4-[({3-[(4-aminophenyl)oxy]phenyl}methyl)amino]phenyl}cyclopropanecarboxylic Acid Trifluoroacetate]
20 | NC(=O)C1CC1c1ccc(NCc2ccc(-c3ccccc3)cc2)cc1 (racemic) [Example 35, Racemic-(trans)-2-{4-[(4-biphenylmethyl)amino]phenyl}cyclopropanecarboxamide]
251 | NC(=O)[C@@H]1C[C@H]1c1ccc(NCc2ccc(-c3ccccn3)cc2)cc1 (racemic) [Example 36, Racemic-(trans)-2-[4-({[4-(2-pyridinyl)phenyl]methyl}amino)phenyl]cyclopropanecarboxamide]
10 | Cc1nc(-c2ccc(C(F)(F)F)cc2)sc1CNc1ccc([C@@H]2C[C@H]2C(=O)NCc2ccncc2)cc1 (racemic) [Example 37, Racemic-(trans)-2-{4-[({4-methyl-2-[4-(trifluoromethyl)phenyl]-1,3-thiazol-5-yl}methyl)amino]phenyl}-N-(4-pyridinylmethyl)cyclopropanecarboxamide]
